Values of other authors in patent US20090130675A1, “Genes Involved in the Biosynthesis of Thiocoraline and Heterologous Production of Same” (PHARMA MAR, S.A., priority 2005, published 2009).

How the values were obtained:
[1] = system: cell lines of different types of solid tumors, such as melanoma, breast, non-microcytic lung and colon cancer; conditions: in vitro
[2] = system: human carcinoma xenografts; conditions: in vivo, human carcinoma xenografts (Faircloth et al. 1997)
Gram-positive bacteria = conditions: against Gram-positive bacteria

## Thiocoraline
[1]
  capacity to inhibit the growth of cell lines: inhibit the growth of cell lines
[2]
  antitumor activity: marked antitumor activity
Gram-positive bacteria
  antibacterial activity: shows antibacterial activity
